Laboratory results as given in patent publication US9518052B2, “Pyrazolopyridines and pyrazolopyrimidines” (Pfizer Inc., priority 2014, dated 2016).
pIC50: −log10 of the molar value.

Tests used:
JAK2 = JAK2 (Homo sapiens (Human), UniProt O60674); test: JAK Caliper Enzyme Assay at 1 mM ATP (JAK2); type: biochemical; conditions: Caliper assay at 1 mM ATP
[1] = system: rhIFNγ stimulated STAT-3 phosphorylation in the A549 human epithelial cell line; test: A549 Cell Assay: Inhibition of pSTAT3; type: cell-based; conditions: A549 cells
Method in brief: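 A549 cells cultured 18 h were preincubated 1 h at 37° C with compound (0.3 nM to 10 μM, 0.1% DMSO) in DMEM with 0.2% BSA, then stimulated with 20 ng/mL rhIFNγ for 30 min. pSTAT3 Tyr705 in the lysates was measured by MSD immunoassay and expressed as percent inhibition.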

JAK3 = JAK3 (Homo sapiens (Human), UniProt P52333); test: JAK Caliper Enzyme Assay at 1 mM ATP (JAK3); type: biochemical; conditions: Caliper assay at 1 mM ATP
Sequence of JAK3 (P52333 whole entry, species assumed): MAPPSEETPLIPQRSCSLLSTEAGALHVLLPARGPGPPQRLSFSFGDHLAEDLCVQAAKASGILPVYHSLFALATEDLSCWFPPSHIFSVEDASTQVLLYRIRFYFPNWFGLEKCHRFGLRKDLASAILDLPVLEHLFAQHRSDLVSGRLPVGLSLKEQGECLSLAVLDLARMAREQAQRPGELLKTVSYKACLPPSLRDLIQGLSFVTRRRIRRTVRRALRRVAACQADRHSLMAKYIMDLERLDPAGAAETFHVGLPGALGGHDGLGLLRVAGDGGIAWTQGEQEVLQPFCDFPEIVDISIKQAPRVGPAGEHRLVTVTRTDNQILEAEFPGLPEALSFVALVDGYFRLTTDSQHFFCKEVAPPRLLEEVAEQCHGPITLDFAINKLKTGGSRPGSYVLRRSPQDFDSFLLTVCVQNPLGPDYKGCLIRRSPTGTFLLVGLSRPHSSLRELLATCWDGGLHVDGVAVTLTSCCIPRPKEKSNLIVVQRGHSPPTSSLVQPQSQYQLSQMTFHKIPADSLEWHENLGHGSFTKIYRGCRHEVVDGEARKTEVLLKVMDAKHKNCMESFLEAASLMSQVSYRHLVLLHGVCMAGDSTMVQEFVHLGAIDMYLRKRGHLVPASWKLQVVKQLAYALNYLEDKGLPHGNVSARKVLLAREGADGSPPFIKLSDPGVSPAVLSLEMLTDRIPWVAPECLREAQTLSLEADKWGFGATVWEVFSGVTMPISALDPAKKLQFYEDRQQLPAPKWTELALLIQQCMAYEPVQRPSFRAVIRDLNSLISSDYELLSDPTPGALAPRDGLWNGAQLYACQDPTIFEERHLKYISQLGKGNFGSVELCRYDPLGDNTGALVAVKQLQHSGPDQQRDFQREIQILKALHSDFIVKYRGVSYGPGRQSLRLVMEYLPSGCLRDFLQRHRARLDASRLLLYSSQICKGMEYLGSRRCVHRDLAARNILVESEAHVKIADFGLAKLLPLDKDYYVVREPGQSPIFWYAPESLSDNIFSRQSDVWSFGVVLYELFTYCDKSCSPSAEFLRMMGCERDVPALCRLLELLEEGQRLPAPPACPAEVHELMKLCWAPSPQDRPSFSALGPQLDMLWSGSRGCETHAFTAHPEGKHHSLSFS

TYK2 = TYK2 (Homo sapiens (Human), UniProt P29597); test: JAK Caliper Enzyme Assay at 1 mM ATP (TYK2); type: biochemical; conditions: Caliper assay at 1 mM ATP
Sequence of TYK2 (P29597 whole entry, species assumed): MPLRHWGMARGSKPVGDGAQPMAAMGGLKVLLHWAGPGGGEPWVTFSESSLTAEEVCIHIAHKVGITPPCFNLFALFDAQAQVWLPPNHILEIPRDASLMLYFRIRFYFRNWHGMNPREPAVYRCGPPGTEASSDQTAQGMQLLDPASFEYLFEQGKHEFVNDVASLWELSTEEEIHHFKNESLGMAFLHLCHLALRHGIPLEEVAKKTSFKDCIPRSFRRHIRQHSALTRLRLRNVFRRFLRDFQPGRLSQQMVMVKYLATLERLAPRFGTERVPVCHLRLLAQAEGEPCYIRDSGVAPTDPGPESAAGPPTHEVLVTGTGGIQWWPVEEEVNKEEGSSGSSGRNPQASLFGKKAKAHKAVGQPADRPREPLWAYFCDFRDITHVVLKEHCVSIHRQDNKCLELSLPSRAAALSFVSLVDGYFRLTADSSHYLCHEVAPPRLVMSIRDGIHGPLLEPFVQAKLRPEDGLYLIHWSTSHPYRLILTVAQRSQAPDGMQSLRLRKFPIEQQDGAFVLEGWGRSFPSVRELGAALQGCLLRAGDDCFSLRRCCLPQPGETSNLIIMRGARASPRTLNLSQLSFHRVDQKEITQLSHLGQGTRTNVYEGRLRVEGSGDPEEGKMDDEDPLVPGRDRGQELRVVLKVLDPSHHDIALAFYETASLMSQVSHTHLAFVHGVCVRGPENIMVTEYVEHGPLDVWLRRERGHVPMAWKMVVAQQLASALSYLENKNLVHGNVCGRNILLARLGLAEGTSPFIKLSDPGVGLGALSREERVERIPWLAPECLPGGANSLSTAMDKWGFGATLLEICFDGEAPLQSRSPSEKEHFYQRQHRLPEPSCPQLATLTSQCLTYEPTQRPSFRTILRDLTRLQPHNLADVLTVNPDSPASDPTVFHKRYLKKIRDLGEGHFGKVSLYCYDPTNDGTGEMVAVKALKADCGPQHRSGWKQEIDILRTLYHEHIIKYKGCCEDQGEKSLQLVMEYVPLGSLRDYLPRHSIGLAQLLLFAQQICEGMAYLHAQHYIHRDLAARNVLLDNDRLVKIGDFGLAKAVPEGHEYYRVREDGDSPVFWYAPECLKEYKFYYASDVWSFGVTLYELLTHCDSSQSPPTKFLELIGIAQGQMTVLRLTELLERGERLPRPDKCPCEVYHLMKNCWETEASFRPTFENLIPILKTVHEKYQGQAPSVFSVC

[2] = system: rhIL-2 stimulated STAT5 phosphorylation in isolated human T cells; test: Human T Cell Assay: Inhibition of pSTAT5; type: cell-based
Procedure: Human T Cell Assay: Inhibition of pSTAT5
An assay measuring the efficacy of JAK inhibitors on the functional response of recombinant human interleukin-2 (rhIL-2) stimulated STAT5 phosphorylation in isolated human T cells.
Human whole blood from individual donors was collected from the phlebotomy unit on-site. Peripheral venous blood (30-60 mL) from healthy volunteers of either sex was used as the source of T cells. T cell isolation from venous whole blood is routinely performed in a class II microbiological safety cabinet. Each sample was collected into between 3 and 6 10 mL Sodium Heparin Vacutainer tubes (BD #367874). The blood was poured into sterile 50 mL conicals (Corning #430828) and incubated with the T cell Rosette Sep Cocktail (Stemcell Technologies #15061) at 50 μL/mL antibody/blood ratio for 20 min. with shaking at room temperature. The blood/antibody mixture was then diluted 1:2 with PBS (Pfizer media prep)/2% FBS (Sigma #F4135) and 30 mL of the mixture was layered onto 15 mL Ficoll-Hypaque (GE Healthcare #17-1440-03) in 50 mL conical tubes. The tubes were then centrifuged at 1200×g for 20 min. at room temperature with no brake. Following centrifugation the T cells formed a buffy coat between the Ficoll-Hypaque and plasma layers. The plasma above the buffy coats was removed to within 5 mm of the buffy coat using a sterile Pasteur pipette. The buffy coats were then collected into fresh sterile 50 mL conical tubes containing 25 mL PBS/2% FBS (2 buffy coats per 50 mL conical). PBS/2% FBS was added to the buffy coat cells such that the final volume in the tube was 50 mL. The tubes were then centrifuged at 200×g for 15 min. at room temperature. The supernatant was discarded and the pellet re-suspended in 10-20 mL of DMEM (Pfizer media prep) Assay media/0.2% BSA (Miltenyi #130-091-376). A differential cell count was performed using a haemacytometer and cells were diluted to 1.1×10^6 T cells/ml in DMEM/0.2% BSA media. Compounds (10 mM-0.3 μM) were diluted with Hanks Balanced Salt Solution (HBSS) (Sigma #H6648) at 1:100 dilution. Immediately following cell isolation and compound dilution, 90 μl/well of T cells (˜1×10^6/ml) in assay medium (DMEM+0.2% BSA) was added to the VWR Deep well V bottom plate (#3906-520-300). 10 μl/well of compound (final concentration range of 10 μM-0.3 nM with 0.1% DMSO) or 0.1% DMSO in HBSS as controls was added to the appropriate wells. Plates were incubated for 1 hour at 37° C., 5% CO2 incubator. 10 μl of 3.3 μg/mL rhIL-2 (R&D Systems #202-IL) was added to the cells (300 ng/ml final assay concentration). Wells containing T cells, medium with 0.1% DMSO and no rhIL-2 were used as background controls. […]
Data were collected and transformed into percent inhibition and calculated using the following formula: […]

JAK1 = JAK1 (Homo sapiens (Human), UniProt P23458); test: JAK Caliper Enzyme Assay at 1 mM ATP (JAK1); type: biochemical; conditions: Caliper assay at 1 mM ATP
Sequence of JAK1 (P23458 whole entry, species assumed): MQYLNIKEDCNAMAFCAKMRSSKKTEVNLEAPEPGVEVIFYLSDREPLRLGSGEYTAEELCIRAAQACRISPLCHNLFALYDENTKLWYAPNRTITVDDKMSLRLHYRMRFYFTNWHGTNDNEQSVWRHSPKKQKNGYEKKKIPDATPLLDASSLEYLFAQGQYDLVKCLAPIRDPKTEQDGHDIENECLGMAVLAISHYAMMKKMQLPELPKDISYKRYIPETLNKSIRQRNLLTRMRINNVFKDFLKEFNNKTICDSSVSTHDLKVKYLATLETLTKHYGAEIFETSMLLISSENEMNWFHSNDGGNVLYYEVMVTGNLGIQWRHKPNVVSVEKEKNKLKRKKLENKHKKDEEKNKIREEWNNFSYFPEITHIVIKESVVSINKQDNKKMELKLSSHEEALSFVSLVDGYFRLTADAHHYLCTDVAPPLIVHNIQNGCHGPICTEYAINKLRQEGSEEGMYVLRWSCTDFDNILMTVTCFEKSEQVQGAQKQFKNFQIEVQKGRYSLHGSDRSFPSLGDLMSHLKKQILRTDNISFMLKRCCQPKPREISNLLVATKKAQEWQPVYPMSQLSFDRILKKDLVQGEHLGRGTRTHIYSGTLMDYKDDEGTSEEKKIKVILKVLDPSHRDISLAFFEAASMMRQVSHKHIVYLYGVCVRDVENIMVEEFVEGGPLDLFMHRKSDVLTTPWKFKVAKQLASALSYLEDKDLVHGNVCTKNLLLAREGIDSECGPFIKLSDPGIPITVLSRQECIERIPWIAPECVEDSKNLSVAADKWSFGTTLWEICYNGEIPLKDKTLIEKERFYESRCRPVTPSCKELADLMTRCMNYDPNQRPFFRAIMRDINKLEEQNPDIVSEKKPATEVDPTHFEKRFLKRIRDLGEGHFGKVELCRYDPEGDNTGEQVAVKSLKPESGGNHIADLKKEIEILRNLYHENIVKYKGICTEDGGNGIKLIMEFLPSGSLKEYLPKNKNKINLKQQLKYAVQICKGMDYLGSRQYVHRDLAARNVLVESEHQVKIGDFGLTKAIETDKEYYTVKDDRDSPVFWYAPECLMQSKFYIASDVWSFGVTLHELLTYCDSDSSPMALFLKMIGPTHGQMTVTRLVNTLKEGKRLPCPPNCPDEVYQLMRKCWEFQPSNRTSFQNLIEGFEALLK

Sequence of JAK2 (O60674 whole entry, species assumed): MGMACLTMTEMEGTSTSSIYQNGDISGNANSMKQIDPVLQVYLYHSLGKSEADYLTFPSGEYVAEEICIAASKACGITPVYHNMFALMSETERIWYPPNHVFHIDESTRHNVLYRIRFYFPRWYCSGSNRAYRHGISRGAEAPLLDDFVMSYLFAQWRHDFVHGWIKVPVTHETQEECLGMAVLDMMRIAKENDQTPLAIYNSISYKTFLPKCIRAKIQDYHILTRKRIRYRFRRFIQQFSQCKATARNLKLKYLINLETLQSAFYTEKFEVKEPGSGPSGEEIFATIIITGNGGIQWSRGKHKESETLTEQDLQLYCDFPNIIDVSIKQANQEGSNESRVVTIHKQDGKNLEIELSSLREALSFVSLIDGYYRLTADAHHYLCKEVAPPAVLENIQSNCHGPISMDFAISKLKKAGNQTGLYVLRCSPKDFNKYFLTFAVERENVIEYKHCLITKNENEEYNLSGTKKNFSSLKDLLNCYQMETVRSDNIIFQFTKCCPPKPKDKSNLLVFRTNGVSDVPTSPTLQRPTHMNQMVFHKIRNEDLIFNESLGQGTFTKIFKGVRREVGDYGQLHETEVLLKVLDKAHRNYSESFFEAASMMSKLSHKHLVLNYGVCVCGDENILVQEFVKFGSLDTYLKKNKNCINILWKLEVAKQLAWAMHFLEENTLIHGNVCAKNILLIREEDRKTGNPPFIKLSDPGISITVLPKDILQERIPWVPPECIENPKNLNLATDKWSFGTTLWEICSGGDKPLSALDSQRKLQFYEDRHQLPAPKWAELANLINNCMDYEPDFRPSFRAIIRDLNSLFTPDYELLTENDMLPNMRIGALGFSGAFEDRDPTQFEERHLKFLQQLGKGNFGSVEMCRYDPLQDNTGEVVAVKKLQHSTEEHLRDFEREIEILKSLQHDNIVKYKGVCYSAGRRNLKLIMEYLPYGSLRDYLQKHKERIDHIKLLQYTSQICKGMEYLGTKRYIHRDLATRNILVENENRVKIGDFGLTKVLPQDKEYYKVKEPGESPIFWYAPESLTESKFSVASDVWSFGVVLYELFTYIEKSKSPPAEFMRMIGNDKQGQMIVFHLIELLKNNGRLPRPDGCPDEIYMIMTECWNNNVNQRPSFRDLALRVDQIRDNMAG

pIC50 (JAK2): 7.01
pIC50 [1]: 6.16
pIC50 (JAK3): 6.49
pIC50 (TYK2): 6.90
pIC50 [2]: 6.23
pIC50 (JAK1): 7.68
SMILES: Cc1ccc(-c2nnc(-c3n[nH]c4cc(-c5cc(F)c(O)cc5CC(F)(F)F)nc(NCc5ccccc5N(C)S(C)(=O)=O)c34)[nH]2)cn1 [Example 166, N-{2-[({6-[5-fFuoro-4-hydroxy-2-(2,2,2-trifluoroethyl)phenyl]-3-[5-(6-methylpyridin-3-yl)-4H-1,2,4-triazol-3-yl]-1H-pyrazolo[4,3-c]pyridin-4-yl}amino)methyl]phenyl}-N-methylmethanesulfonamide]
